SMILES strings stand for the structures.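 Tested at 5 concentrations; 48 h exposure; 96-well plates; endpoints linearly interpolated, else capped at highest concentration. The concentration for 50% growth inhibition is given as GI50.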 Active and inactive are the calls of the source. Rule as the data show it: active = GI50 up to about 1.1 µM and inactive = higher.

Test systems include HCT-15; K562; MDA-MB-435; MOLT-4; COLO 205; SW-620; OVCAR-3; RPMI-8226; MDA-MB-231; NCI-H460; T47D; LOX IMVI; SF-539; NCI-H226; OVCAR-5; SF-295; HCC 2998; ACHN; M14; HCT-116.
What all share (experiment): NCI tumour cell line growth inhibition, 48 h

Consider `COc1cc2c(cc1OC)C(=O)/C(=C/c1ccccc1)CC2`, for which the GI50 with HCT-15 is 20.8 µM; in the assay on K562, 34.4 µM (inactive); in the assay with MDA-MB-435, 8.09 µM (inactive); in the assay on MOLT-4 it was 18.1 µM (inactive); with COLO 205 it was 22.1 µM (inactive); in the assay with SW-620 it was 40.4 µM (inactive). The GI50 with OVCAR-3 was 37.6 µM (inactive); in the assay with RPMI-8226 it was 23.4 µM (inactive); with MDA-MB-231, > 100 µM (inactive); with NCI-H460 it was 26.9 µM (inactive); in the assay with T47D, 26.1 µM (inactive); in the assay with LOX IMVI, 32.7 µM (inactive). Besides, the GI50 in the assay on SF-539 is 47.5 µM (inactive); in the assay with NCI-H226 it was 41.4 µM (inactive); with OVCAR-5, 27.4 µM (inactive); in the assay on SF-295 it was 20.7 µM (inactive); in the assay on HCC 2998, 22.6 µM (inactive); with ACHN, 53.5 µM (inactive). The GI50 is > 100 µM (inactive) with M14 and 23.8 µM (inactive) in the assay on HCT-116.
As to `C=C1c2nc3ccccc3n2C=C(c2ccc(C)cc2)N1c1ccc(C)cc1`, the GI50 was 23.8 µM in the assay with HCT-15; 19.9 µM (inactive) in the assay on K562; 11.6 µM (inactive) with MDA-MB-435; 31.6 µM (inactive) in the assay on MOLT-4; 28.8 µM (inactive) in the assay on COLO 205; 36.8 µM (inactive) in the assay on SW-620. The GI50 with OVCAR-3 was 64.7 µM (inactive); with RPMI-8226, 21.4 µM (inactive); in the assay on MDA-MB-231, > 83.4 µM (inactive); in the assay with NCI-H460 it was 42.3 µM (inactive); in the assay with T47D, > 100 µM (inactive); with LOX IMVI it was 34.8 µM (inactive). Moreover, the GI50 in the assay with SF-539 is > 48.1 µM (inactive); in the assay on NCI-H226, 7.08 µM (inactive); in the assay on OVCAR-5, > 100 µM (inactive); in the assay on SF-295, 50.9 µM (inactive); in the assay with HCC 2998 it was 22.5 µM (inactive); with ACHN it was > 78 µM (inactive). For the same molecule, the GI50 in the assay with M14 was 56.1 µM (inactive); with HCT-116, 43.7 µM (inactive).
Regarding `NS(=O)(=O)c1ccc(NC(=O)Nc2ccccc2F)cc1`, the GI50 with HCT-15 was greater than 100 µM; in the assay with K562 it was > 100 µM (inactive); in the assay on MDA-MB-435, > 100 µM (inactive); with MOLT-4, > 100 µM (inactive); in the assay with COLO 205 it was > 100 µM (inactive); with SW-620, > 100 µM (inactive). Further, the GI50 in the assay with OVCAR-3 was > 100 µM (inactive); with RPMI-8226, > 100 µM (inactive); with MDA-MB-231, > 100 µM (inactive); in the assay on NCI-H460, > 100 µM (inactive); with T47D, 52.5 µM (inactive); in the assay with LOX IMVI, > 100 µM (inactive). The GI50 with SF-539 was > 100 µM (inactive); with NCI-H226, > 100 µM (inactive); in the assay on OVCAR-5, > 100 µM (inactive); in the assay with SF-295, 0.243 µM (active); in the assay with HCC 2998, > 100 µM (inactive); in the assay on ACHN, > 100 µM (inactive). The GI50 was 82.4 µM (inactive) in the assay on M14 and > 100 µM (inactive) in the assay on HCT-116.
Take `Cc1cc(C)c(OC(=O)Nc2cccc3ccccc23)c(-c2ccccc2)c1`: the GI50 is 34.4 µM with HCT-15; 41.8 µM (inactive) in the assay with K562; 30.1 µM (inactive) in the assay on MDA-MB-435; 3.81 µM (inactive) in the assay on MOLT-4; 50.1 µM (inactive) in the assay with COLO 205; 57.8 µM (inactive) in the assay on SW-620. Further, the GI50 in the assay with OVCAR-3 was 24.5 µM (inactive); in the assay with RPMI-8226, 22.5 µM (inactive); in the assay with MDA-MB-231, 25.5 µM (inactive); with NCI-H460, 47.9 µM (inactive); in the assay with T47D, 48.6 µM (inactive); in the assay with LOX IMVI, 24.8 µM (inactive). Also, the GI50 is 57 µM (inactive) with SF-539; 18.3 µM (inactive) with NCI-H226; 73.8 µM (inactive) in the assay on OVCAR-5; 48.8 µM (inactive) in the assay with SF-295; 27.7 µM (inactive) in the assay on HCC 2998; 23.7 µM (inactive) in the assay with ACHN. Also, the GI50 with M14 is 29.1 µM (inactive); with HCT-116 it was 34.9 µM (inactive).
`Clc1ccc(CSCCc2ccncc2)cc1Cl`: the GI50 with HCT-15 was 22.9 µM; with K562 it was 19.3 µM (inactive); in the assay with MDA-MB-435, 22.6 µM (inactive); with MOLT-4, 15.8 µM (inactive); in the assay on COLO 205, 14.2 µM (inactive); with SW-620, 19.6 µM (inactive). Besides, the GI50 in the assay on OVCAR-3 was 16.1 µM (inactive); in the assay on RPMI-8226 it was 14.6 µM (inactive); in the assay with MDA-MB-231, 15.4 µM (inactive); with NCI-H460, 31.8 µM (inactive); in the assay on T47D, 26.3 µM (inactive); in the assay on LOX IMVI, > 10 µM (inactive). For the same molecule, the GI50 in the assay on SF-539 was 17 µM (inactive); in the assay on NCI-H226, 22 µM (inactive); with OVCAR-5, 23.3 µM (inactive); with SF-295 it was 17.5 µM (inactive); in the assay with HCC 2998, 18.2 µM (inactive); in the assay with ACHN, 21.7 µM (inactive). Besides, the GI50 is 17.2 µM (inactive) in the assay with M14 and 15.8 µM (inactive) in the assay with HCT-116.
Regarding `COC(=O)C(Cc1c[nH]c2ccccc12)NC1=Nc2ccncc2S(=O)(=O)N1c1cccc(OC(C)C)c1` (stereo not given), the GI50 in the assay on HCT-15 was 43.2 µM; with K562, 41.8 µM (inactive); with MDA-MB-435 it was 45.9 µM (inactive); with MOLT-4, 8.91 µM (inactive); in the assay on COLO 205, 30.3 µM (inactive); in the assay on SW-620, 92.5 µM (inactive). Also, the GI50 in the assay on OVCAR-3 was 36 µM (inactive); in the assay on RPMI-8226, 15.5 µM (inactive); in the assay with MDA-MB-231 it was 49.4 µM (inactive); in the assay on NCI-H460, 27.7 µM (inactive); in the assay on T47D, 36.1 µM (inactive); in the assay with LOX IMVI, 26.4 µM (inactive). In addition, the GI50 with SF-539 is 80.5 µM (inactive); in the assay with NCI-H226, > 100 µM (inactive); in the assay on OVCAR-5, > 100 µM (inactive); in the assay with SF-295, 42 µM (inactive); in the assay on HCC 2998 it was 48.8 µM (inactive); in the assay with ACHN it was 41.1 µM (inactive). The results for the GI50 with M14 and in the assay on HCT-116 were 41.6 µM (inactive) and 35.4 µM (inactive), respectively.
`N#C/C(C(=O)NCc1ccccc1)=C(/N)N1CCCC1`: the GI50 in the assay on HCT-15 is greater than 100 µM; with K562 it was > 100 µM (inactive); in the assay with MDA-MB-435, > 100 µM (inactive); in the assay with MOLT-4, > 100 µM (inactive); in the assay with COLO 205 it was > 100 µM (inactive); in the assay with SW-620, > 100 µM (inactive). The GI50 in the assay with OVCAR-3, with RPMI-8226, in the assay on MDA-MB-231, in the assay on NCI-H460, with T47D and in the assay on LOX IMVI was > 100 µM (inactive) in each case. Also, the GI50 with SF-539, in the assay on NCI-H226, in the assay with OVCAR-5, with SF-295, in the assay with HCC 2998 and in the assay with ACHN was > 100 µM (inactive) throughout. Further, the GI50 with M14 and with HCT-116 was > 100 µM (inactive) each time.

These data come from ChEMBL document CHEMBL1201862, “PubChem BioAssay data set” (2004).
